The record followed here is ChEMBL document CHEMBL2311382, “Tryptanthrin derivatives as Toxoplasma gondii inhibitors--structure-activity-relationship of the 6-position” (Bioorg Med Chem Lett, 2013).

Data set [1] can be described thus: Cytotoxicity against human foreskin fibroblast cells by colorimetric method. Format: cell-based. The settings on record: human foreskin fibroblast (HFF) cells, read-out: TD50 (the source's name).
A further data set concerns Toxoplasma gondii. Put plainly: Antimicrobial activity against Toxoplasma gondii assessed as inhibition of growth measured after 5 days by beta-galactosidase assay. Format: functional. The note with it: 120 h, read-out: ID50 (the source's name).
Data set [2] in a line: Therapeutic index, ratio of TD50 for human foreskin fibroblast cells to ID 50 for Toxoplasma gondii. Format: cell-based. The settings on record: read-out: TI.

In the case of `O=c1c2ccccc2nc2n1-c1ccc(Br)cc1/C2=N/O`, the CC50 in data set [1] came out at 50 µM. Besides, the IC50 in the data set on Toxoplasma gondii was 0.085 µM. Besides, the selectivity ratio in data set [2] came to 590.
The corresponding values for `CC(=O)O/N=C1\c2ccccc2-n2c1nc1ccccc1c2=O` are 35 µM, 1.1 µM and 32.
As to `O=CO/N=C1\c2ccccc2-n2c1nc1ccccc1c2=O`, the CC50 in data set [1] was 22 µM. The IC50 in the data set with Toxoplasma gondii was 0.62 µM. The selectivity ratio in data set [2] was 35.
The corresponding values for `N/N=C1/c2ccccc2-n2c1nc1ccccc1c2=O` are 32 µM, 2 µM and 16.
With `N/N=C1/c2cc(Br)ccc2-n2c1nc1ccccc1c2=O`, the CC50 in data set [1] came to 79 µM. Moreover, the IC50 in the data set with Toxoplasma gondii stood at 0.31 µM. Besides, the selectivity ratio in data set [2] was 250.
For `CC(=O)N/N=C1/c2ccccc2-n2c1nc1ccccc1c2=O`, in that order: above 100 µM, 12 µM and above 8.3.
For `O=C(N/N=C1/c2ccccc2-n2c1nc1ccccc1c2=O)C(F)(F)F`, in that order: above 100 µM, 1.6 µM and above 63.
For `CC1(O)c2cc(Br)ccc2-n2c1nc1ccccc1c2=O` (configuration not stated), in that order: above 100 µM, 7 µM and above 14.
For the molecule `O=C1c2ccccc2N[C@H]2[C@H](O)c3ccccc3N12`, the CC50 in data set [1] stood at 12 µM. Further, the IC50 in the data set with Toxoplasma gondii turned out to be 0.24 µM. In addition, the selectivity ratio in data set [2] stood at 50.
For `O=C1c2ccccc2N[C@H]2[C@H](O)c3cc(Br)ccc3N12`, in that order: above 100 µM, 0.002 µM and above 50000.
The corresponding values for `CC(=O)O[C@@H]1c2ccccc2N2C(=O)c3ccccc3N[C@@H]12` are 40 µM, 1 µM and 40.
For `O=Nc1c2ccccc2n2c(O)c3ccccc3nc12`, in that order: above 100 µM, 0.8 µM and above 130.
In the case of `O=C1c2cc(Br)ccc2-n2c1nc1ccccc1c2=O`, in data set [1], the CC50 was above 100 µM. Also, in the data set on Toxoplasma gondii, the IC50 worked out at 0.00323 µM. The selectivity ratio in data set [2] is above 33000.
On to `CC1(O)c2ccccc2-n2c1nc1ccccc1c2=O` (configuration not stated), for which the CC50 in data set [1] is above 100 µM. Besides, the IC50 with Toxoplasma gondii was determined as 8.7 µM. In data set [2], the selectivity ratio is above 11.
The corresponding values for `CON=C1c2ccccc2-n2c1nc1ccccc1c2=O` (mixture of isomers) are above 100 µM, 1.3 µM and above 77.
For `CON=C1c2cc(Br)ccc2-n2c1nc1ccccc1c2=O` (single isomer, unassigned), in that order: above 100 µM, 0.083 µM and above 1200.
For `CC(=O)CC1(O)c2ccccc2-n2c1nc1ccccc1c2=O` (configuration not stated) [PHAITANTHRINS A], in that order: 11 µM, 0.23 µM and 49.
On to `COc1cc(Cc2cnc(N)nc2N)cc(OC)c1OC` [TRIMETHOPRIM], for which, in data set [1], the CC50 is above 100 µM. In addition, the IC50 in the data set on Toxoplasma gondii is 15 µM. For the same molecule, in data set [2], the selectivity ratio was above 3.
For `O=C1c2ccccc2-n2c1nc1ccccc1c2=O` [TRYPTANTHRIN], in that order: 6.4 µM, 0.14 µM and 45.
